Measurements: patent US9387249B2, “Methods of treating hypertension with at least one angiotensin II receptor blocker and chlorthalidone” (Takeda Pharmaceutical Company Limited, priority 2008, dated 2016)

Assays:
Format in all cases: in vivo, human
[1] = system: patients with stage 2 hypertension; assay: Phase 3 randomized double-blind study: safety (adverse events, laboratory tests)
Excerpt: More specifically, as will be discussed in more detail below, the purpose of this study is evaluate the change in 24-hour mean systolic blood pressure (SBP) by ambulatory blood pressure monitoring (ABPM) in response to (5-methyl-2-oxo-1,3-dioxol-4-yl)methyl 2-ethoxy-1-{[2′-(5-oxo-4,5-dihydro-1,2,4-oxadiazol-3-yl)biphenyl-4-yl]methyl}-1H-benzimidazole-7-carboxylate potassium salt plus chlorthalidone compared to placebo plus chlorthalidone for 6 weeks in subjects with uncontrolled essential hypertension. Subjects that qualify for the studied will be discontinued from their current antihypertensive medication. After a 2-week run-in-period, subjects who meet the entry criteria will be given (5-methyl-2-oxo-1,3-dioxol-4-yl)methyl 2-ethoxy-1-{[2′-(5-oxo-4,5-dihydro-1,2,4-oxadiazol-3-yl)biphenyl-4-yl]methyl}-1H-benzimidazole-7-carboxylate potassium salt plus chlorthalidone or placebo plus chlorthalidone once daily for 6 weeks. Blood pressure will be monitored during study visits and ABPM will be used to evaluate blood pressure for 24-hour periods twice during the study. Subjects will receive physical examinations including measurement of vital signs and blood and urine samples will be collected (for analyses related to safety monitoring during study visits). […]

[2] = system: patients with stage 2 hypertension; assay: Phase 3 randomized double-blind study: change from baseline in 24-hour mean SBP by ambulatory blood pressure monitoring (ABPM); details: Chlorthalidone 25 mg + placebo once daily, oral, 6 weeks
Experimental: (§1) This is a phase 3, multi-center, randomized, parallel group, double-blind, placebo-controlled, study to evaluate the efficacy and safety of (5-methyl-2-oxo-1,3-dioxol-4-yl)methyl 2-ethoxy-1-{[2′-(5-oxo-4,5-dihydro-1,2,4-oxadiazol-3-yl)biphenyl-4-yl]methyl}-1H-benzimidazole-7-carboxylate potassium salt when combined with chlorthalidone 25 mg once daily (QD) in subjects with uncontrolled essential hypertension.
(§2) More specifically, as will be discussed in more detail below, the purpose of this study is evaluate the change in 24-hour mean systolic blood pressure (SBP) by ambulatory blood pressure monitoring (ABPM) in response to (5-methyl-2-oxo-1,3-dioxol-4-yl)methyl 2-ethoxy-1-{[2′-(5-oxo-4,5-dihydro-1,2,4-oxadiazol-3-yl)biphenyl-4-yl]methyl}-1H-benzimidazole-7-carboxylate potassium salt plus chlorthalidone compared to placebo plus chlorthalidone for 6 weeks in subjects with uncontrolled essential hypertension. Subjects that qualify for the studied will be discontinued from their current antihypertensive medication. […] Blood pressure will be monitored during study visits and ABPM will be used to evaluate blood pressure for 24-hour periods twice during the study. […]

[3] = system: patients with stage 2 hypertension; assay: Phase 3 randomized double-blind study: change in clinic SBP; details: chlorthalidone plus placebo once daily
Experimental: as §1, §2

Row | SMILES | Effect on the hypokalemia seen with chlorthalidone alone ([1]; azilsartan medoxomil added to chlorthalidone) | Δ from baseline, mean, Absolute, Mean 24-Hour SBP by ABPM [2] | Hypokalemia, frequency ([1]; chlorthalidone plus placebo compared with chlorthalidone plus azilsartan medoxomil) | Absolute reduction in clinic SBP [3]
1 | CCOc1nc2cccc(C(=O)OCc3oc(=O)oc3C)c2n1Cc1ccc(-c2ccccc2-c2noc(=O)[nH]2)cc1.[K] [Azilsartan medoxomil, (5-methyl-2-oxo-1,3-dioxol-4-yl)methyl 2-ethoxy-1-{[2′-(5-oxo-4,5-dihydro-1,2,4-oxadiazol-3-yl)biphenyl-4-yl]methyl}-1H-benzimidazole-7-carboxylate potassium salt] | attenuated the hypokalemia | – | – | –
2 | NS(=O)(=O)c1cc(C2(O)NC(=O)c3ccccc32)ccc1Cl (stereo not shown) [Chlorthalidone, 2-chloro-5-(1-hydroxy-3-oxo-1,2-dihydroisoindol-1-yl)-benzenesulfonamide] | – | −15.9 mm Hg | more frequent | −21.8 mm Hg
